The results in this text go back to patent US7115658B2 (priority 2002, dated 2006).

The experiment concerns the target T1, Recombinant HCV polymerase (Hepatitis C virus genotype 1b, UniProt P26663).
T1 construct: 2.5 pmoles (0.15 μg) HCV polymerase protein
The experiment in a line: HCV Polymerase Inhibition Assay. The format is biochemical. The note with it: primer/template-directed transcription, 30 minutes at 30° C.; category symbol. The protocol: The above-described compounds were tested for activity with HCV polymerase. Recombinant HCV polymerase was tested for its ability to perform primer/template-directed transcription in assays that contained 30 mM tris-HCl pH 7.2, 10 mM MgCl2, 20 mM NaCl, 1 mM Dithiothreitol (DTT), 0.05% Tween-20, 1% glycerol, 5 pmoles biotin-dG12 (primer), 0.5 pmoles poly(rC)300 (template), 1 μM GTP, 0.1–0.3 uCi α-^32P-GTP, and 2.5 pmoles (0.15 μg) HCV polymerase protein in a final volume of 75 μL. Reactions were initiated by addition of enzyme and incubated 30 minutes at 30° C. Reactions were stopped by addition of 33 mM EDTA, and polynucleotide products were collected by filtration through Diethylaminoethyl (DE) Filtermat papers (Wallac). Unincorporated triphosphate was removed by washing the filters with 5% dibasic sodium phosphate. The filters were counted in a Packard Tri-Lux Microbeta scintillation counter (Packard Bioscience, Meriden, Conn.). Compounds to be tested were added at various concentrations, e.g., 1 μm to 50 μm, from stocks in 10% DMSO-water (final DMSO is 1% in reaction).
IC50 values were estimated from the primary cpm data (collected in triplicate) using the formula: cpm (I)=cpm (no inhibitor)(1−([I]/([I]+IC50))). An IC50 value represents the concentration (in μM) of a compound that provides 50% inhibition of polymerase-directed transcription in the above assay. A percent inhibition value is expressed for a compound where it was impractical to calculate an IC50 value with available data. If the IC50 estimated by the above equation was less than 200 nM, it was recalculated using the following equation, which takes into account the enzyme concentration (30 nM) in the assay: cpm(I)=cpm(no inhibitor)(1−((((I+IC50+30e−9)−sqrt(((I+IC50+30e−9)^2)−4×30e−9×I)))/((2) (30e−9))). Curve fitting was performed using the program KaleidaGraph (Synergy Software, Reading, Pa.).

T1 sequence (P26663 2420-3010): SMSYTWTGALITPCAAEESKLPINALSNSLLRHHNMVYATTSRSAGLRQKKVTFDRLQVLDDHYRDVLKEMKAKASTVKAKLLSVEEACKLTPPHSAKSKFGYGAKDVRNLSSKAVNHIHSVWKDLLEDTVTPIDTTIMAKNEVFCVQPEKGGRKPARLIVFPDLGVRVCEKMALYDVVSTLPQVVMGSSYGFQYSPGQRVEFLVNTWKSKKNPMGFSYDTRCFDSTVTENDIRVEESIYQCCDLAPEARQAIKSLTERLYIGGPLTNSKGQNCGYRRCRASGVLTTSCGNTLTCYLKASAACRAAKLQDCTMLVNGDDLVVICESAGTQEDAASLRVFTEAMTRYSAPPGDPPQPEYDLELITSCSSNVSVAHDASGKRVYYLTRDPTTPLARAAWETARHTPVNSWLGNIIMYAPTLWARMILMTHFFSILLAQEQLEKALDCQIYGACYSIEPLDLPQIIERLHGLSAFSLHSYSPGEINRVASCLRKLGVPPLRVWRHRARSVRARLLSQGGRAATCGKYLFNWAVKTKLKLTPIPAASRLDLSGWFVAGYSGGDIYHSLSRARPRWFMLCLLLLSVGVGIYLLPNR

Take `COc1ccc(Oc2cccc(CCC3(C4CCCC4)CC(O)=CC(=O)O3)c2)cc1` (stereo not shown) [Example 45, 6-cyclopentyl-6-{2-[3-(4-methoxyphenoxy)phenyl]ethyl}-4-hydroxy-5,6-dihydro-2H-pyran-2-one]: the concentration for half-maximal inhibition (IC50) is 10 to 50 µM. The figure for `COc1cc(OC)c(CCC2(C3CCCC3)CC(O)=C(Sc3nc(N)c4cn[nH]c4n3)C(=O)O2)cc1Cl` (stereo not shown) [Example 97, 3-[(4-amino-1H-pyrazolo[3,4-d]pyrimidin-6-yl)thio]-6-[2-(5-chloro-2,4-dimethoxyphenyl)ethyl]-6-cyclopentyl-4-hydroxy-5,6-dihydro-2H-pyran-2-one] is under 1 µM; for `COc1ccc(CCC2(C3CCCC3)CC(O)=C(Sc3nc4ccccc4o3)C(=O)O2)cc1Cl` (stereo not shown) [Example 127, 3-(Benzooxazol-2-ylsulfanyl)-6-[2-(3-chloro-4-methoxy-phenyl)-ethyl]-6-cyclopentyl-4-hydroxy-5,6-dihydro-pyran-2-one] it is under 1 µM; for `Cc1cc(SC2=C(O)CC(C)(C)OC2=O)c(C(C)(C)C)cc1N` [Example 89, 3-[(4-amino-2-tert-butyl-5-methylphenyl)thio]-4-hydroxy-6,6-dimethyl-5,6-dihydro-2H-pyran-2-one] it is over 50 µM. The figure for `O=C1CC(=O)OC(CCc2ccc(N3CCCC3=O)cc2)(C2CCCC2)C1` (stereo not shown) [Example 79, 6-Cyclopentyl-6-{2-[4-(2-oxo-pyrrolidin-1-yl)-phenyl]-ethyl}-dihydro-pyran-2,4-dione] is 1 to 10 µM; for `CCOc1ccc(CCC2(C3CCCC3)CC(=O)CC(=O)O2)cc1Cl` (stereo not shown) [Example 44] it is under 1 µM; for `CC(=O)Nc1cc(C(C)(C)C)c(SC2=C(O)CC(CCc3ccc(O)cc3)(C3CCCC3)OC2=O)cc1C` (racemic) [Example 140, (+/−)N-(5-tert-butyl-4-{6-cyclopentyl-4-hydroxy-6-[2-(4-hydroxy-phenyl)-ethyl]-2-oxo-5,6-dihydro-2H-pyran-3-ylsulfanyl}-2-methyl-phenyl)-acetamide] it is 1 to 10 µM.

In the case of `CCn1nnnc1SC1=C(O)CC(CCc2ccc(OC)cc2)(C2CCCC2)OC1=O` (stereo not shown) [Example 121, 6-Cyclopentyl-3-[(1-ethyl-1H-tetraazol-5-yl)thio]-4-hydroxy-6-[2-(4-methoxyphenyl)ethyl]-5,6-dihydro-2H-pyran-2-one], the half-maximal inhibitory concentration (IC50) is under 1 µM. The figure for `COc1cc(OC)c(CCC2(C3CCCC3)CC(O)=C(Sc3cnccn3)C(=O)O2)cc1Cl` (stereo not shown) [Example 108, 6-[2-(5-Chloro-2,4-dimethoxyphenyl)ethyl]-6-cyclopentyl-4-hydroxy-3-(pyrazin-2-ylthio)-5,6-dihydro-2H-pyran-2-one] is under 1 µM.

Take `COc1ccc(CCC2(C3CCCC3)CC(=O)CC(=O)O2)cc1F` (stereo not shown) [Example 30, 6-Cyclopentyl-6-[2-(3-fluoro-4-methoxy-phenyl)-ethyl]-dihydro-pyran-2,4-dione]: the IC50 is under 1 µM. The figure for `O=C(Cc1cccnc1)C1C(=O)CC(CCc2cccc(Cl)c2)(C2CCCC2)OC1=O` (stereo not shown) [Example 174, 6-[2-(3-Chloro-phenyl)-ethyl]-6-cyclopentyl-3-(2-pyridin-3-yl-acetyl)-dihydro-pyran-2,4-dione] is 1 to 10 µM; for `COc1ccc(CCC2(C3CCCC3)CC(=O)CC(=O)O2)c(OC)c1` (stereo not shown) [Example 38, 6-Cyclopentyl-6-[2-(2,4-dimethoxy-phenyl)-ethyl]-dihydro-pyran-2,4-dione] it is 10 to 50 µM; for `COc1cc(CCC2(C3CCCC3)CC(O)=CC(=O)O2)ccc1O` (stereo not shown) [Example 19, 6-Cyclopentyl-4-hydroxy-6-[2-(4-hydroxy-3-methoxy-phenyl)-ethyl]-5,6-dihydro-pyran-2-one] it is 1 to 10 µM. On to `O=C1CC(=O)OC(CCc2ccc(F)c(Cl)c2)(C2CCCC2)C1` (stereo not shown) [Example 31, 6-[2-(3-Chloro-4-fluoro-phenyl)-ethyl]-6-cyclopentyl-dihydro-pyran-2,4-dione], for which the IC50 lay in the range of 1 to 10 µM. For `COc1ccc(CCC2(C3CCCC3)CC(O)=C(Sc3nc(N)c4cn[nH]c4n3)C(=O)O2)cc1` (stereo not shown) [Example 120, 3-[(4-Amino-1H-pyrazolo[3,4-d]pyrimidin-6-yl)thio]-6-cyclopentyl-4-hydroxy-6-[2-(4-methoxyphenyl)ethyl]-5,6-dihydro-2H-pyran-2-one] the value was under 1 µM. For `O=C1C=C(O)CC(CCCc2ccccc2)(C2CCCC2)O1` (stereo not shown) [Example 21, 6-Cyclopentyl-4-hydroxy-6-(3-phenyl-propyl)-5,6-dihydro-pyran-2 one] the value was over 50 µM; for `COc1cc(OC)c(CCC2(C3CCCC3)CC(O)=C(Cl)C(=O)O2)cc1Cl` (stereo not shown) [Example 90], under 1 µM; for `Cc1noc(COc2ccc(CCC3(C4CCCC4)CC(O)=CC(=O)O3)cc2)n1` (stereo not shown) [Example 48, 6-Cyclopentyl-6-(2-{4-[(3-methyl-1,2,4-oxadiazol-5-yl)methoxy]phenyl}ethyl)4-hydroxy-5,6-dihydro-2H-pyran-2-one], 10 to 50 µM. The figure for `O=C1CC(=O)OC(CCc2ccc(OC3CCCC3)c(F)c2)(C2CCCC2)C1` (stereo not shown) [Example 77, 6-Cyclopentyl-6-[2-(4-cyclopentyloxy-3-fluoro-phenyl)-ethyl]-dihydro-pyran-2,4-dione] is 1 to 10 µM. `COc1ccc(CCC2(C3CCCC3)CC(O)=C(Sc3nc(O)c4cc[nH]c4n3)C(=O)O2)cc1` (stereo not shown) [Example 113, 6-Cyclopentyl-4-hydroxy-3-[(4-hydroxy-7H-pyrrolo[2,3-d]pyrimidin-2-yl)thio]-6-[2-(4-methoxyphenyl)ethyl]-5,6-dihydro-2H-pyran-2-one]: the IC50 is under 1 µM. For `COc1ccc(CCC2(C3CCCC3)CC(=O)C(C(=O)Cc3ccccc3)C(=O)O2)c(OC)c1` (stereo not shown) [Example 169, 6-Cyclopentyl-6-[2-(2,4-dimethoxy-phenyl)-ethyl]-3-phenylacetyl-dihydro-pyran-2,4-dione], the half-maximal inhibitory concentration (IC50) was 10 to 50 µM.

“6-[2-(3-Chloro-4-isopropoxy-phenyl)-ethyl]-6-cyclopentyl-4-hydroxy-3-(4-hydroxy-phenylsulfanyl)-5,6-dihydro-pyran-2-one [Example 130]”: the IC50 is under 1 µM. The figure for `O=C1CC(=O)OC(CCc2ccc(Cl)c(Cl)c2)(C2CCCC2)C1` (stereo not shown) [Example 53, 6-Cyclopentyl-6-[2-(3,4-dichloro-phenyl)-ethyl]-dihydro-pyran-2,4-dione] is 1 to 10 µM; for `COc1cccc(CCC2(C3CCCC3)CC(O)=CC(=O)O2)c1` (stereo not shown) [Example 16, 6-Cyclopentyl-4-hydroxy-6-[2-(3-methoxy-phenyl)-ethyl]-5,6-dihydropyran-2-one] it is 10 to 50 µM. As for `COc1cc(CCC2(C3CCCC3)CC(O)=CC(=O)O2)ccc1OCc1ccccc1` (stereo not shown) [Example 20, 6-[2-(4-Benzyloxy-3-methoxy-phenyl)-ethyl]-6-cyclopentyl-4-hydroxy-5,6-dihydro-pyran-2-one], the IC50 fell in the range of 1 to 10 µM. Turning to `Cc1cc(SC2=C(O)C[C@@](CCc3cccc(O)c3)(C3CCCC3)OC2=O)c(C(C)(C)C)cc1CO` [Example 152, (S)-3-(2-tert-butyl-4-hydroxymethyl-5-methyl-phenylsulfanyl)-6-cyclopentyl-4-hydroxy-6-[2-(3-hydroxy-phenyl)-ethyl]-5,6-dihydro-pyran-2-one], the IC50 was 1 to 10 µM.

As for `COc1ccc(CCC2(C3CCCC3)CC(O)=C(Sc3nc4ccccc4[nH]3)C(=O)O2)cc1Cl` (stereo not shown) [Example 128, 3-(1H-Benzoimidazol-2-ylsulfanyl)-6-[2-(3-chloro-4-methoxy-phenyl)-ethyl]-6-cyclopentyl-4-hydroxy-5,6-dihydro-pyran-2-one], the 50% inhibitory concentration (IC50) is under 1 µM.

In the case of `COc1ccc(CCC2(C3CCCC3)CC(O)=C(Sc3nnc(C)s3)C(=O)O2)cc1Cl` (stereo not shown) [Example 125, 6-[2-(3-Chloro-4-methoxy-phenyl)-ethyl]-6-cyclopentyl-4-hydroxy-3-(5-methyl-[1,3,4]thiadiazol-2-ylsulfanyl)-5,6-dihydro-pyran-2-one], the IC50 is under 1 µM. The figure for `COc1ccc(CCC2(C3CCCC3)CC(=O)C(C(=O)Cc3cccnc3)C(=O)O2)c(OC)c1` (stereo not shown) [Example 172, 6-Cyclopentyl-6-[2-(2,4-dimethoxy-phenyl)-ethyl]-3-(2-pyridin-3-yl-acetyl)-dihydro-pyran-2,4-dione] is 1 to 10 µM; for “5-Trifluoromethyl-pyridine-2-sulfonic acid[5-tert-butyl-4-(6,6-dicyclopentyl-4-hydroxy-2-oxo-5,6-dihydro-2H-pyran-3-ylsulfanyl)-2-methyl-phenyl]-amide [Example 185]” it is 10 to 50 µM; for `Cn1c(COc2ccc(CCC3(C4CCCC4)CC(O)=CC(=O)O3)cc2)nc2ccccc21` (stereo not shown) [Example 50, 6-Cyclopentyl-6-(2-{4-[(1-methyl-1H-benzimidazol-2-yl)methoxy]phenyl}ethyl)-4-hydroxy-5,6-dihydro-2H-pyran-2-one] it is 10 to 50 µM.

What is called IC50 is the concentration that gives 50% inhibition.
